Reference: US11203600B2 (Denali Therapeutics Inc., priority 2017, dated 2021)
pIC50: −log10 of the molar value.

Molecular target: GST-hRIPK1 (8-327) (Homo sapiens (Human), UniProt Q13546)
Assay: Fluorescent Polarization Binding (FP Binding) assay, RIPK1
Settings: 10 nM GST-hRIPK1 (8-327), 5 nM fluorescent-labeled ligand, RT, 30 min, mean of at least two independent experiments
How it was run: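 Compound displacement of 5 nM labelled ligand from 10 nM GST-hRIPK1 (8-327) was read as FP (531/595 nm) after 30 min at RT. Buffer: HEPES pH 7.5, NaCl, MgCl2, CHAPS, DTT, Pluronic; 1% DMSO final. IC50s were averaged over at least two independent runs.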

Sequence of GST-hRIPK1 (8-327) (Q13546 8-327): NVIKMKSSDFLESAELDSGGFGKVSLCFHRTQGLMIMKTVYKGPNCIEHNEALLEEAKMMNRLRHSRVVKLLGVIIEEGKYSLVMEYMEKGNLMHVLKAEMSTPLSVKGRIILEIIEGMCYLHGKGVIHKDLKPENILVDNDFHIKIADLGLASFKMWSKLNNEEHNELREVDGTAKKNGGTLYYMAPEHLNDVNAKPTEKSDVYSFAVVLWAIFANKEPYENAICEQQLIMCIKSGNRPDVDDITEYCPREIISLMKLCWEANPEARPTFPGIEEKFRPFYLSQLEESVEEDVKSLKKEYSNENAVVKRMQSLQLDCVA

| Compound | pIC50 |
| --- | --- |
| COc1nc(N2CCC(C(=O)N3CCOc4c(C#N)cncc4C3)CC2)ncc1F [Example 118, 4-[1-(5-fluoro-4-methoxy-pyrimidin-2-yl)piperidine-4-carbonyl]-3,5-dihydro-2H-pyrido[3,4-f][1,4]oxazepine-9-carbonitrile] | 7.00 to 10.00 |
| COc1ccnc(N2CCC(C(=O)N3Cc4cncc(C#N)c4OC[C@H]3C)CC2)n1 [Example 119, (3R)-4-(1-(4-methoxypyrimidin-2-yl)piperidine-4-carbonyl)-3-methyl-2,3,4,5-tetrahydropyrido[3,4-f][1,4]oxazepine-9-carbonitrile] | 7.00 to 10.00 |
| COc1nc(N2CCC(C(=O)N3Cc4cncc(C#N)c4OC[C@H]3C)CC2)ncc1F [Example 120, (3R)-4-(1-(5-fluoro-4-methoxypyrimidin-2-yl)piperidine-4-carbonyl)-3-methyl-2,3,4,5-tetrahydropyrido[3,4-f][1,4]oxazepine-9-carbonitrile] | 7.00 to 10.00 |
| COC1(C(=O)N2CCOc3c(F)cncc3C2)CCN(c2ncc(F)cn2)CC1 [Example 121] | 7.00 to 10.00 |
| COc1nc(N2CCC(OC)(C(=O)N3CCOc4c(F)cncc4C3)CC2)ncc1F [Example 122, (9-fluoro-3,5-dihydro-2H-pyrido[3,4-f][1,4]oxazepin-4-yl)-[1-(5-fluoro-4-methoxy-pyrimidin-2-yl)-4-methoxy-4-piperidyl]methanone] | 7.00 to 10.00 |
| CNc1nc(N2CCC(F)(C(=O)N3CCOc4c(C#N)cncc4C3)CC2)ncc1F [Example 123, 4-[4-fluoro-1-[5-fluoro-4-(methylamino)pyrimidin-2-yl]piperidine-4-carbonyl]-3,5-dihydro-2H-pyrido[3,4-f][1,4]oxazepine-9-carbonitrile] | 6.00 to 7.00 |
| N#Cc1cncc2c1OCCN(C(=O)C1(F)CCN(c3ncc(F)c(NC4CC4)n3)CC1)C2 [Example 124, 4-[1-[4-(cyclopropylamino)-5-fluoro-pyrimidin-2-yl]-4-fluoro-piperidine-4-carbonyl]-3,5-dihydro-2H-pyrido[3,4-f][1,4]oxazepine-9-carbonitrile] | 7.00 to 10.00 |
| N#Cc1cncc2c1OCCN(C(=O)C1(F)CCN(c3ncc(F)c(OCC(F)F)n3)CC1)C2 [Example 125, 4-[1-[4-(2,2-difluoroethoxy)-5-fluoro-pyrimidin-2-yl]-4-fluoro-piperidine-4-carbonyl]-3,5-dihydro-2H-pyrido[3,4-f][1,4]oxazepine-9-carbonitrile] | 7.00 to 10.00 |
| CSc1nc(N2CCC(F)(C(=O)N3CCOc4c(C#N)cncc4C3)CC2)ncc1F [Example 126, 4-[4-fluoro-1-(5-fluoro-4-methylsulfanyl-pyrimidin-2-yl)piperidine-4-carbonyl]-3,5-dihydro-2H-pyrido[3,4-f][1,4]oxazepine-9-carbonitrile] | 7.00 to 10.00 |
| CN(C)CCCOc1nc(N2CCC(F)(C(=O)N3CCOc4c(C#N)cncc4C3)CC2)ncc1F [Example 127, 4-[1-[4-[3-(dimethylamino)propoxy]-5-fluoro-pyrimidin-2-yl]-4-fluoro-piperidine-4-carbonyl]-3,5-dihydro-2H-pyrido[3,4-f][1,4]oxazepine-9-carbonitrile] | 6.00 to 7.00 |
| COc1nc(N2CCC(F)(C(=O)N3CCOc4c(C#N)cncc4C3)CC2)ncc1Cl [Example 128, 4-[1-(5-chloro-4-methoxy-pyrimidin-2-yl)-4-fluoro-piperidine-4-carbonyl]-3,5-dihydro-2H-pyrido[3,4-f][1,4]oxazepine-9-carbonitrile] | 7.00 to 10.00 |
| COc1nc(N2CCC(C(=O)N3CCOc4c(C#N)cncc4C3)CC2)ncc1Cl [Example 129, 4-[1-(5-chloro-4-methoxy-pyrimidin-2-yl)piperidine-4-carbonyl]-3,5-dihydro-2H-pyrido[3,4-f][1,4]oxazepine-9-carbonitrile] | 7.00 to 10.00 |
| COCCOc1nc(N2CCC(C(=O)N3CCOc4c(F)cncc4C3)CC2)ncc1F [Example 130, (9-fluoro-3,5-dihydro-2H-pyrido[3,4-f][1,4]oxazepin-4-yl)-[1-[5-fluoro-4-(2-methoxyethoxy)pyrimidin-2-yl]-4-piperidyl]methanone] | 7.00 to 10.00 |
| N#Cc1cncc2c1OCCN(C(=O)C1CCN(c3ncc(F)c(OCC(F)F)n3)CC1)C2 [Example 131, 4-(1-(4-(2,2-difluoroethoxy)-5-fluoropyrimidin-2-yl)piperidine-4-carbonyl)-2,3,4,5-tetrahydropyrido[3,4-f][1,4]oxazepine-9-carbonitrile] | 7.00 to 10.00 |
| COC1(C(=O)N2CCOc3c(F)cncc3C2)CCN(c2ncc(F)c(OCC(F)F)n2)CC1 [Example 132, (1-(4-(2,2-difluoroethoxy)-5-fluoropyrimidin-2-yl)-4-methoxypiperidin-4-yl)(9-fluoro-2,3-dihydropyrido[3,4-f][1,4]oxazepin-4(5H)-yl)methanone] | 7.00 to 10.00 |
| N#Cc1cncc2c1OCCN(C(=O)C1CCN(c3nccc(OCC(F)F)n3)CC1)C2 [Example 133, 4-[1-[4-(2,2-difluoroethoxy)pyrimidin-2-yl]piperidine-4-carbonyl]-3,5-dihydro-2H-pyrido[3,4-f][1,4]oxazepine-9-carbonitrile] | 6.00 to 7.00 |
| COC1(C(=O)N2CCOc3c(F)cncc3C2)CCN(c2nccc(OCC(F)F)n2)CC1 [Example 134, [1-[4-(2,2-difluoroethoxy)pyrimidin-2-yl]-4-methoxy-4-piperidyl]-(9-fluoro-3,5-dihydro-2H-pyrido[3,4-f][1,4]oxazepin-4-yl)methanone] | 6.00 to 7.00 |
| COC1(C(=O)N2CCOc3c(F)cncc3C2)CCN(c2ncccn2)CC1 [Example 135, (9-fluoro-3,5-dihydro-2H-pyrido[3,4-f][1,4]oxazepin-4-yl)-(4-methoxy-1-pyrimidin-2-yl-4-piperidyl)methanone] | 7.00 to 10.00 |
| COC1(C(=O)N2CCOc3c(F)cncc3C2)CCN(c2ncc(F)c(OCCN(C)C)n2)CC1 [Example 136] | < 6.00 |
| N#Cc1cncc2c1OCCN(C(=O)C1(CF)CCN(c3ncc(F)cn3)CC1)C2 [Example 137, 4-(4-(fluoromethyl)-1-(5-fluoropyrimidin-2-yl)piperidine-4-carbonyl)-2,3,4,5-tetrahydropyrido[3,4-f][1,4]oxazepine-9-carbonitrile] | 6.00 to 7.00 |
| CC1(C(=O)N2CCOc3c(C#N)cncc3C2)CC(F)(F)C1 [Example 138, 4-(3,3-difluoro-1-methyl-cyclobutanecarbonyl)-3,5-dihydro-2H-pyrido[3,4-f][1,4]oxazepine-9-carbonitrile] | 6.00 to 7.00 |
| N#Cc1cncc2c1OCCN(C(=O)C1(C(F)F)CC1)C2 [Example 139, 4-[1-(difluoromethyl)cyclopropanecarbonyl)-3,5-dihydro-2H-pyrido[3,4-f][1,4]oxazepine-9-carbonitrile] | < 6.00 |
| N#Cc1cncc2c1OCCN(C(=O)C1(F)CC1)C2 [Example 140, 4-(1-fluorocyclopropanecarbonyl)-3,5-dihydro-2H-pyrido[3,4-f][1,4]oxazepine-9-carbonitrile] | < 6.00 |
| CC(CC(F)(F)F)C(=O)N1CCOc2c(C#N)cncc2C1 (stereo not shown) [Example 141, 4-(4,4,4-trifluoro-2-methyl-butanoyl)-3,5-dihydro-2H-pyrido[3,4-f][1,4]oxazepine-9-carbonitrile] | 6.00 to 7.00 |
| CC(F)(F)C(C)(C)C(=O)N1CCOc2c(C#N)cncc2C1 [Example 142, 4-(3,3-difluoro-2,2-dimethyl-butanoyl)-3,5-dihydro-2H-pyrido[3,4-f][1,4]oxazepine-9-carbonitrile] | 7.00 to 10.00 |
